Test results from BindingDB's records for PubMed 39740572 (Washington University School of Medicine).

Molecular target: T1, P2X purinoceptor 7 (Homo sapiens, UniProt Q99572)
T1 sequence (Q99572 whole entry): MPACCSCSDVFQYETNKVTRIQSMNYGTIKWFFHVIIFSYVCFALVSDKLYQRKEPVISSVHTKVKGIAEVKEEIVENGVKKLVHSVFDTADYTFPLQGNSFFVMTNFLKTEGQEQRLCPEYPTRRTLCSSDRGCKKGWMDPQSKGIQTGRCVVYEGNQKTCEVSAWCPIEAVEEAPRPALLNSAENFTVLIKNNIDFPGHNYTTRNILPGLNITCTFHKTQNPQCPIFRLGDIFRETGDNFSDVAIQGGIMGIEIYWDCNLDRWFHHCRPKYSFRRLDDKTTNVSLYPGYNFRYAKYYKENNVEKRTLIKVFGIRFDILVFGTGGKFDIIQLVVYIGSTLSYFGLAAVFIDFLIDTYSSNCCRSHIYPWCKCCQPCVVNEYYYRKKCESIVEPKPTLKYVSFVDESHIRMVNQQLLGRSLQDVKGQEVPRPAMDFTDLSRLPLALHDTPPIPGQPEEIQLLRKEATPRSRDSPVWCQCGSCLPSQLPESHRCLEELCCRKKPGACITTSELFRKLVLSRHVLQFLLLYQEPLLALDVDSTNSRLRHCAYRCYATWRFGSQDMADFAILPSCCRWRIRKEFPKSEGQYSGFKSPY
Experiment: Binding affinity to human P2X7 receptor expressed in HEK293 cells assessed as inhibition of BzATP-induced increase in ethidium bromide uptake by fluorescence plate reader analysis

IC50: 9.8 nM
Structure (SMILES): O=C(NCc1cccc(C(F)(F)F)c1Cl)[C@@H]1CCC(=O)N1C/C=C/I
